According to patent US8093060B2, “Multisite phosphorylated peptide (protein) recognizing compound and detection method, imaging method, alzheimer's disease diagnosing method and reagent kit using the same” (Canon Kabushiki Kaisha, priority 2008, dated 2012):
“Also recorded” adds a separate entry of the source.

How the values were obtained:
[1] = tested on: tau proteins on a tissue section; experiment: Fluorescence staining of AD human hippocampal tissue sections treated with dephosphorylating enzyme (PP2A); settings: PP2A 0.5 units/50 μL, 37° C., 24 h
Method: To investigate whether an excessively phosphorylated tau protein in brain tissues can be detected, a fluorescence staining experiment of hippocampal tissue sections from a human brain affected by Alzheimer (AD) and a normal brain was performed using BODIPY-Zn(Dpa). […]
Before staining, the sections were treated with a dephosphorylating enzyme (PP2A: 0.5 units/50 μL, 37° C., 24 h), and a fluorescence staining experiment for hippocampal tissue sections was performed according to the procedure in Example 2(12). […] Fluorescence dots observed in the BODIPY-Zn(Dpa) staining and the AT8 staining disappeared after dephosphorylating tau proteins on tissues with PP2A. […] The fluorescence dots in the BODIPY-Zn(Dpa) staining were detected depending on the phosphorylation of tau proteins.

[2] = target: T1, phosphorylated tau aggregate (Homo sapiens, UniProt P10636); experiment: Fluorescence titration of phosphorylated tau aggregate against 100 nM BODIPY-Zn(Dpa); type: binding; settings: compared with tau aggregate and amyloid β aggregate
T1 construct: made in house; host or cells: Escherichia coli
T1 sequence (P10636 1-441 isoform P10636-8): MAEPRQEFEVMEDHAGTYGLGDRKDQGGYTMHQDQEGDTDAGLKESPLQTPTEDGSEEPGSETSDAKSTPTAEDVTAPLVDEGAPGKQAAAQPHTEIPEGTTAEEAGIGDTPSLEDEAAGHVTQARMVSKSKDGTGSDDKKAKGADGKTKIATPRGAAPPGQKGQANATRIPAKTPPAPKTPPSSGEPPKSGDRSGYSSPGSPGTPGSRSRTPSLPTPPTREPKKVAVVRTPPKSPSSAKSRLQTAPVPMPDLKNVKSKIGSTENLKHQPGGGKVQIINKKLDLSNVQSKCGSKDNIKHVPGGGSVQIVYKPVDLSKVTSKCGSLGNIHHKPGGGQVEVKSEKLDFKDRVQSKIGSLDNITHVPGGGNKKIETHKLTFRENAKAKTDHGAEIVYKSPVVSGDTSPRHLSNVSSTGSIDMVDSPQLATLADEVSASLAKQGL
Method: The ranges of concentrations at which a phosphorylated tau aggregate, a tau aggregate, and an amyloid β aggregate interact with BODIPY-Zn(Dpa) were examined by titration. Titration was performed in the range of tau concentrations of 0 to 320 nM (0 to 14 μg/mL) against 100 nM of BODIPY-Zn(Dpa). Using a solvent obtained by adding 10% DMSO and 10 μM Zn(NO3)2 to HBS (10 mM HEPES (pH 7.4), 150 mM NaCl), the solution was incubated at 37° C. for 60 min, and fluorescence was measured (excitation wavelength, 490 nm; fluorescence wavelength, 545 nm).

amyloid beta protein = experiment: Fluorescence staining of AD-affected human brain hippocampal tissue sections, costaining with anti-Aβ antibody; settings: 10 μM probe
Method: (§1) To investigate whether an excessively phosphorylated tau protein in brain tissues can be detected, a fluorescence staining experiment of hippocampal tissue sections from a human brain affected by Alzheimer (AD) and a normal brain was performed using BODIPY-Zn(Dpa). Specifically, hippocampal tissue sections from the AD-affected human brain or the normal brain were deparaffinized (xylene immersion for 5 min was repeated three times, then each section was immersed in 100%, 90%, 80% and 70% aqueous ethanol solution in stages [for 2 min each], and finally washed twice with water for 5 min), lipofuscin was removed (washed twice with PBS for 2 min, immersed in 0.25% by weight permanganate potassium/PBS for 30 min, washed twice with PBS for 2 min, immersed in 1% by weight oxalic acid and 1% by weight potassium pyrosulfate/PBS for 6 min and finally washed twice with PBS for 2 min), trypsin treatment was performed (washed twice with PBS-Tween at room temperature for 2 min and 0.05% Trypsin/PBS at 37° C. for 15 min), and finally washed twice with PBS-Tween at room temperature for 5 min, and costaining was performed using an antibody and BODIPY-Zn(Dpa). First, blocking was performed with 10% goat serum (37° C., 30 min) to remove 10% goat serum, then a primary antibody was added, and a reaction was performed at 4° C. for 17 to 19 h. […]

[3] = tested on: phosphorylated tau protein; experiment: Fluorescence staining of AD-affected human brain hippocampal tissue sections, costaining with tau antibodies; settings: 10 μM probe
Method: as §1

amyloid β aggregate = target: T2, amyloid β aggregate (Homo sapiens, UniProt P05067); experiment: Fluorescence titration of BODIPY-Zn(Dpa) against amyloid β aggregate (EC50); type: binding; settings: aggregate 1 μg/mL, 37° C., 30 min
T2 construct: (Aβ1-42) indicates amyloid β aggregate
T2 sequence (P05067 672-713 limits assumed): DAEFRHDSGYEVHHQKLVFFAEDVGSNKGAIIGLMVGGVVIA
Method: (§2) BODIPY-Zn(Dpa) was titrated against a phosphorylated tau aggregate, a tau aggregate, and an amyloid β aggregate to obtain EC50 (a probe concentration at which a half value of the maximum change (ΔFmax) in fluorescence intensity is observed). BODIPY-Zn(Dpa) was titrated against an aggregate at a predetermined concentration (1 μg/mL), and changes in fluorescence intensity at each concentration (ΔF) were plotted. Using a solvent obtained by adding 10% DMSO and 100 μM Zn(NO3)2 to HBS (10 mM HEPES (pH 7.4), 150 mM NaCl), the solution was incubated at 37° C. for 30 min, and fluorescence was measured (excitation wavelength, 490 nm; fluorescence wavelength, 545 nm).

[4] = Delivery of BODIPY-Zn(Dpa) into brain after intravenous administration; type: in vivo, ICR mouse; settings: i.v. 1 mg/kg; for percent of the dose per gram of the mouse brain: rounded; for content in the brain / content in the brain based on the dose: mouse
Method: BODIPY-Zn(Dpa) was intravenously administered to an ICR mouse (male, 7 weeks old) to measure the delivery thereof into the brain in vivo. Specifically, BODIPY-Zn(Dpa) (400 μL of 50 μM HBS solution) was injected from the caudal vein at a dose of 1 mg/kg, and the brain was collected at 2 or 30 min after administration. The collected brain (424 to 488 mg) was homogenized in 3 mL of an HBS solution using a spatula and homogenized by ultrasonic irradiation. BODIPY-Zn(Dpa) contained in the brain was quantified by reverse-phase HPLC to obtain the content of BODIPY-Zn(Dpa) in the brain based on the dose (% ID/g: % injected dose per gram of the brain). Fluorescence from the compound (excitation, 520 nm; fluorescence, 545 nm) was utilized for detection by HPLC.

tau aggregate = target: T3, tau aggregate (Homo sapiens, UniProt P10636); experiment: Fluorescence titration of BODIPY-Zn(Dpa) against tau aggregate (EC50); type: binding; settings: aggregate 1 μg/mL, 37° C., 30 min
T3 construct: made in house; host or cells: Escherichia coli
T3 sequence (P10636 1-441 isoform P10636-8): as the sequence (P10636 1-441 isoform P10636-8) above
Method: as §2

Tau1P = target: T4, Tau1P (Homo sapiens, UniProt P10636); experiment: Fluorescence titration of BODIPY-Zn(Dpa) with Tau1P; type: binding
T4 construct: made in house; host or cells: chemical solid-phase synthesis
Method: (§3) The phosphorylated peptide-recognizing ability of BODIPY-Zn(Dpa) compound 9 (hereinafter referred to as BODIPY-Zn(Dpa)) was evaluated by measuring fluorescence spectra. Measurement was performed under the following conditions: [BODIPY-Zn(Dpa)]=5 μM; pH 7.2; 50 mM HEPES buffer; and 25° C. The excitation wavelength was λex=530 nm. […] When Tau2P was excessively added, this change reached saturation. The […] calculated from the fluorescence changes was 2.75×10^5 M^−1.

Tau0P = target: T5, Tau0P (Homo sapiens, UniProt P10636); experiment: Fluorescence titration of BODIPY-Zn(Dpa) with Tau0P; type: binding
T5 construct: made in house; host or cells: chemical solid-phase synthesis
Method: as §3

CC1=C(c2ccc(CN(C)Cc3ccccn3)nc2)C(C)=[N+]2C1=C(c1cc(OCCOCCOCCO)cc(OCCOCCOCCO)c1)c1c(C)c(-c3ccc(CN(C)Cc4ccccn4)nc3)c(C)n1[B-]2(F)F.O=[N+]([O-])[O-].O=[N+]([O-])[O-].O=[N+]([O-])[O-].O=[N+]([O-])[O-].[Zn+2].[Zn+2] [BODIPY-Zn(Dpa)]
fluorescence dots in staining image after PP2A treatment [1]: disappeared | fluorescence intensity after PP2A treatment compared with before [1]: significantly decreased | concentration at which fluorescence change occurred [2]: at the lowest concentration | coexistence of fluorescence with Aβ42 (anti-Aβ antibody) staining (amyloid beta protein): did not coexist | coexistence of fluorescence with Tau-2 and AT8 antibody staining [3]: coexisted | EC50 (amyloid β aggregate): 650 nM | percent of the dose per gram of the mouse brain ([4]; 2 min after administration): 0.5% | percent of the dose per gram of the mouse brain ([4]; 30 min after administration): 0.02% | content in the brain ([4]; 2 min after administration): 99.3 pmol/g brain | content in the brain based on the dose ([4]; 2 min after administration): 0.496 % ID/g | content in the brain ([4]; 30 min after administration): 3.96 pmol/g brain | content in the brain based on the dose ([4]; 30 min after administration): 0.020 % ID/g | EC50 (tau aggregate): 80 nM | I/I0 - 1 at saturation (Tau1P; Tau 1P): No change | fluorescence intensity change on addition of peptide (Tau1P; Tau1P, monophosphorylated): no major change was observed; also recorded: does not change | I/I0 - 1 at saturation (Tau0P; Tau 0P): No change | fluorescence intensity change on addition of peptide (Tau0P; Tau0P, unphosphorylated): no major change was observed
